Key:
[1] = molecular target: T1, KDM4E (Homo sapiens, UniProt B2RXH2); experiment: Inhibition of KDM4E arginine hydroxylation (ROH), LC–MS; format: biochemical; conditions: for inhibition of +16 Da product formation: KDM4E with H2a(1–20)
T1 construct: KDM4E1–337; made in house; host or cells: E. coli
T1 sequence (B2RXH2 1-337): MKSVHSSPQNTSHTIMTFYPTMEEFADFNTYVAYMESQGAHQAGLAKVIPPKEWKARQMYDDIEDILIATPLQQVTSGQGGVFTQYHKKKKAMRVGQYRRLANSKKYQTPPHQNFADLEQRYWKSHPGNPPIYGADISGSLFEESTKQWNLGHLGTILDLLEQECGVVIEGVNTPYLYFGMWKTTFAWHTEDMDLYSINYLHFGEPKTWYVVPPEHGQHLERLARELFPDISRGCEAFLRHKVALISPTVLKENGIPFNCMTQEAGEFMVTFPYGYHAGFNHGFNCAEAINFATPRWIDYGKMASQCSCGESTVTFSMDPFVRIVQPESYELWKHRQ
Description: µM (NH4)2Fe(SO4)2, and 50 mM HEPES (pH 7.5). (c,d) Inhibition of arginine hydroxylation (ROH) activity of KDM4E by small molecule 2OG oxygenase inhibitors. ( c ) ROH activity measurements were performed using an LC–MS based assay (Error bars; +/- SD; n = 3 independent assays). Conditions: 10 µM H2a(1 -20) incubated with 1 µM KDM4E, 100 µM sodium L-ascorbate, 10 µM (NH4)2Fe(SO4)2 and 100 µM 2OG.
Reactions wer e quenched after 90 min. […]

[2] = tested on: KDM4D; experiment: MALDI–TOF MS screen of biotin-tagged H2a(1–20)R3X peptides with KDM4D; format: biochemical, human; conditions: 60 min, n = 2
From the text: (§1) To investigate whether histone H2a is a JmjC-KDM substrate, we initially used mass spectrometry (MS) to screen a set of biotinylated N-terminal H2a(1–20) peptides with post-translational modifications (PTMs) at Arg-3, i.e. asymmetrically/symmetrically di-methylated Arg-3 (H2aR3me2a, H2aR3me2s, respectively), mono-methylated Arg-3 (H2aR3me1) and citrullinated Arg-3 (H2aR3Ci), against KDM4A, KDM4D, KDM4E and KDM5C. […] H2a(1–20)R3me2a, which appeared to be the most efficient RDM substrate in the screen, was then re-synthesised without a biotin tag and tested for RDM activity using the catalytic domains of all KDM4/KDM5 subfamily members.
(§2) MS-based screening assays with peptides and calf thymus histones were as reported; see Supplementary Table 6 for conditions. Time course assays were based on reported procedures. In brief, equal volumes of the enzyme and substrate solutions were combined to initiate the reaction; 10 µL of 2% (v/v) formic acid (HCOOH) in ddH2O or 100% methanol was added to 10 µL of the reaction mixture to quench reactions at different time points. Unless otherwise stated, time course assays were carried out in triplicate. In some cases, LC–MS was used instead of MALDI-TOF MS to avoid a MALDI matrix induced artefact with the hydroxylated product (Supplementary Fig. 16).
(§3) Supplementary Figure 1 Initial Screen of H2a fragments with KD M4 A, KDM4D, KDM4E, and KDM5C.
(§4) KDM4D, KDM4E, and KDM5C with H2a(1–20)R3X peptides from the AltaBioscience peptide library (Set 5) […]
(§5) (potentially), KDM4E, and KDM5C with H2a(1–20)R3me2a; KDM4E and KDM5C with H2a(1–20)R3me2s; and KDM5C wit h H2a(1–20 )R3 me1 . +1 6 Da mass shift s corr esponding t o hydr oxylat ion, were observed wit h […]
(§6) 20), and H2a(1–20)Ci3 (only with KDM4E).
(§7) H 2 a( 1–20)Ci3 and KDM5C with H2a(1–20 ) . […]
(§8) peptides except H2a(1–20)R3me2a. * Low-level peaks indicating ~10% demethylation. Experiments were repeated with the same results. For assay conditions see Supplementary Table 6 (n = 2, independent assays). Peptides were synthesised linked with C-terminal Nε-(D-biotin)-L- ly si ne -amide group (see
(§9) Supplementary Table 5 ) . […]
(§10) (1 picture or pasted object on this page, not shown here)
(§11) [ E nz ym e] [Peptide] [2OG] [Ascorbate] [(NH4)2F e(S O4)2] [TCEP] Buffer pH7.5 Enzyme Cognate substrate (mM) (mM) (mM) (mM) (mM) (mM) [HE PE S]
(§12) Supplementary Table 6 Summary of MS assay conditions for substrate screening. These conditions enabled efficient turnover of established substrates. Reactions were carried out at 37 °C unless otherwise st ated. […]

[3] = molecular target: T2, KDM5C (Homo sapiens, UniProt P41229); experiment: MALDI–TOF MS screen of biotin-tagged H2a(1–20)R3X peptides with KDM5C; format: biochemical; conditions: for −14 Da mass shift (demethylation) / mass shift: 60 min, KDM5C, MALDI–TOF MS, n = 2; for RDM activity: initial screen, biotinylated peptides
T2 construct: KDM5C 1– 765; made in house; host or cells: Sf9 cells
T2 sequence (P41229 1-765): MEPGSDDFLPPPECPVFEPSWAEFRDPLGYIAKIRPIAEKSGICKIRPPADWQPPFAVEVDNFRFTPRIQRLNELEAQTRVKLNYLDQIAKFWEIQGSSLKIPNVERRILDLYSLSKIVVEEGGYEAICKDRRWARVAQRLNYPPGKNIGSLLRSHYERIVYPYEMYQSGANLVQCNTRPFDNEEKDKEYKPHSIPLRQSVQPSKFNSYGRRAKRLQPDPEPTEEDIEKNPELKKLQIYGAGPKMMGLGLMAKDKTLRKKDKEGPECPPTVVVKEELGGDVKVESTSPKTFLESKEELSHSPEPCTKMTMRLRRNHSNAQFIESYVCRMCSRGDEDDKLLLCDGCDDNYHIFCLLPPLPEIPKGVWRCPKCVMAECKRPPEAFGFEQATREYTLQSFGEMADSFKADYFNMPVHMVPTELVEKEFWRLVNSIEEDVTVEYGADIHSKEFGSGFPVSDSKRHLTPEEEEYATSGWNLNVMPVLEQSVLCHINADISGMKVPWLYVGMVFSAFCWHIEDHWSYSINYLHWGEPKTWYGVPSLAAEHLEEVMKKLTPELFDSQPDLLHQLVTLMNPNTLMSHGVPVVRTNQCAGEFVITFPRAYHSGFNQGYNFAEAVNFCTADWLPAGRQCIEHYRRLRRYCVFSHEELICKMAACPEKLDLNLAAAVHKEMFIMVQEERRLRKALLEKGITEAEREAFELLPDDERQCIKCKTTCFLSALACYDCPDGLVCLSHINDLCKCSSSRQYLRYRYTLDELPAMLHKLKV
From the text: as §1, §2, §3, §4, §5, §6, §7, §8, §9, §10, §11, §12

[4] = tested on: KDM4A; experiment: MALDI–TOF MS screen of biotin-tagged H2a(1–20)R3X peptides with KDM4A; format: biochemical, human; conditions: for RDM activity: initial screen, biotinylated peptides
From the text: as §1, §2, §3, §4, §5, §6, §7, §8, §9, §10, §11, §12

[5] = molecular target: T1, KDM4E; experiment: MALDI–TOF MS screen of biotin-tagged H2a(1–20)R3X peptides with KDM4E; format: biochemical; conditions: for +16 Da mass shift (hydroxylation) / −14 Da mass shift (demethylation): 60 min, KDM4E, MALDI–TOF MS, n = 2; for RDM activity: initial screen, biotinylated peptides
From the text: as §1, §2, §3, §4, §5, §6, §7, §8, §9, §10, §11, §12

[6] = molecular target: T1, KDM4E; experiment: FDH-coupled demethylation assay, Michaelis–Menten kinetics; format: biochemical
Description: The RDM activity of KDM4E with H2a(1–20)R3me2a was compared with demethylation of H3(1–21)R2me2a using a formaldehyde dehydrogenase (FDH) assay[23],[24]. KDM4E catalysed demethylation of H2a R3me2a was less efficient than H3 R2me2a by approximately three-fold under the same conditions (kcat/KM 0.89 hr^−1 µM^−1 for H2a(1–20)R3me2a and 2.58 hr^−1 µM^−1 for H3(1–21)R2me2a).
When LC–MS-based assays were used, time course assays were carried out as described; product formation (%) was plotted against time (s) using GraphPad Prism5 version 5.04. The gradient of each reaction was calculated by fitting a line of linear regression to the first-order region. The resultant slope was used to calculate reaction rate in µM hr^−1. The rate versus peptide concentration (µM) was plotted and the KM, kcat, and Vmax values determined by fitting the Michaelis–Menten equation using GraphPad Prism5 version 5.04. […]
Supplementary Figure 3 KDM4E catalysed H2a(1–20) hydroxylation and H3(1–21)R2me2a demethylation. Michaelis–Menten plots monitoring: ( a) hydroxylation of H2a(1–20) measured using LC– MS (R2 value obtained was 0.5 indicating poor goodness of fit, likely due to limited data at low substrate concentrations due to signal:noise limitations), (b) demethylation of H2a(1–20)R3me2a, and (c) demethylation of H3(1–21)R2me2a measured using the FDH-coupled demethylation assay. […]

[7] = 60 min, 2 µM KDM4A, 10 µM peptide, MALDI–TOF MS, n = 2

Compound	−14 Da mass shift (demethylation) [3]	RDM activity [3]	+16 Da mass shift (hydroxylation) [5]	RDM activity [5]	inhibition of +16 Da product formation [1]	+16 Da mass shift (hydroxylation) [2]	mass shift [4, 7]	RDM activity [4]	other results
Oc1cccc2cccnc12 [IOX1, 8-hydroxyquinoline]	–	–	–	–	inhibited	–	–	–	IC50 [1]: 22.9 µM
O=C(O)CNC(=O)C(=O)O [NOG, N-oxalylglycine]	–	–	–	–	inhibited	–	–	–	–
O=C(O)c1ccnc(C(=O)O)c1 [2,4-PDCA, 2,4-pyridine dicarboxylic acid]	–	–	–	–	inhibited	–	–	–	–
AR [ me 2a ] T KQ T AR KST GGKAPR KQ L A [H3(1–21)R2me2a, reference compound]	–	–	–	–	–	–	–	–	kcat/KM (demethylation) ([6]; FDH assay, 2 µM KDM4E, 200 µM 2OG, pH 7.5, n = 3 assay repeats): 717 M⁻¹ s⁻¹; kcat/KM relative to KDM substrate H3 K9me3 (fold less) ([6]; same FDH assay, H3 K9me3 from ref 7): 13 fold
SGR GKQ GGKAR AKAKT R SSR - NH - Ahx - K- B i oti n [H2a(1–20) (AB), biotinylated H2a(1–20)]	–	–	observed	–	–	potentially	No mass shifts were observed	–	mass shift [3]: No mass shifts were observed

Now from value to compound, other results behind:

−14 Da mass shift (demethylation) [3]	RDM activity [3]	+16 Da mass shift (hydroxylation) [5]	RDM activity [5]	Compound	inhibition of +16 Da product formation [1]	+16 Da mass shift (hydroxylation) [2]	mass shift [4, 7]	RDM activity [4]	other results
observed	Evidence for RDM activity	observed	Evidence for RDM activity	SGR[me1]GKQGGKARAKAKTRSSR-NH-Ahx-K-Biotin [H2a(1–20)R3me1 (AB), biotinylated H2a(1–20) with mono-methylated Arg-3]	–	potentially	No mass shifts were observed	to a lesser extent	–
–	–	observed	–	SGR[C i]GKQGGKARAKAKTRSSR-NH-Ahx-K-Biotin [H2a(1–20)Ci3 (AB), biotinylated H2a(1–20) with citrullinated Arg-3]	–	–	No mass shifts were observed	–	mass shift [2]: No mass shifts were observed; mass shift [3]: No mass shifts were observed
observed	Evidence for RDM activity	observed	Evidence for RDM activity	SGR[me2s ]GKQGGKARAKAKTRSSR-NH-Ahx-K-Biotin [H2a(1–20)R3me2s (AB), biotinylated H2a(1–20) with symmetrically di-methylated Arg-3]	–	potentially	No mass shifts were observed	to a lesser extent	−14 Da mass shift (demethylation) [5]: observed
observed	Evidence for RDM activity	observed	Evidence for RDM activity	SGR[me2a]GKQGGKARAKAKTRSSR-NH-Ahx-K-Biotin [H2a(1–20)R3me2a (AB), biotinylated H2a(1–20) with asymmetrically di-methylated Arg-3, AltaBioscience library]	–	potentially	–	to a lesser extent	−14 Da mass shift (demethylation) [2]: potentially; −14 Da mass shift (demethylation) ([4]; 60 min, 2 µM KDM4A, 10 µM peptide, 37 °C, MALDI–TOF MS, n = 2): observed; −14 Da mass shift (demethylation) [5]: observed

From publication PMC11603075 (Communications Biology, 2024)
